Reference: patent US20260285853A1, “COMPOUNDS AND METHODS FOR MODULATING SPLICING” (REMIX THERAPEUTICS INC., priority 2023, published 2026)

Tests used:
Assay type in all cases: cell-based
MYB mRNA [1] = test: Gene panel canonical junction qPCR assay, decrease in CJ mRNA, Table 3; details: decrease in CJ mRNA levels, canonical junction qPCR, gene panel
Summary of the method: (§1)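 A673 (DMEM, 10% FBS, 15,000 cells/well) or K562 (IMDM, 10% FBS) cells treated 24 h at 37 °C with 11-point 3-fold dilutions, top 10 uM, DMSO ≤0.25%. Canonical exon-exon junction mRNA measured by RT-qPCR, normalized to GAPDH, GUSB or PPIA and DMSO (ΔΔCt); IC50 from 4-parameter logistic fit.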

HTT mRNA [2] = test: as above; details: decrease in CJ mRNA levels, canonical junction qPCR, gene panel
Summary of the method: as §1

HTT mRNA [3] = test: Splicing RT-qPCR assay (THP), Table 2A; details: Table 2A, THP; for AC50: HTT alternative junction (AJ) mRNA, read-out: HTT AJ (AC50, increase in alternative junction mRNA); for IC50: HTT canonical junction (CJ) mRNA, read-out: HTT CJ (IC50, decrease in canonical junction mRNA)
[4] = tested on: SH-SY5Y (human neuroblastoma) cells; test: Cell viability, Cell Titer Glo 2.0 assay; details: read-out: Viability SHSY5Y.3 GI50
Summary of the method: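 Toxicity screen in SH-SY5Y cells. Compounds were serially diluted in DMSO and then in medium, giving 0.1% DMSO final. Viability was read with CellTiter-Glo 2.0 after 72 h at 37 °C, 5% CO2, against medium-only blank wells.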

MYB mRNA [5] = test: Splicing RT-qPCR assay (THP), Table 2A; details: Table 2A, THP; for AC50: MYB alternative junction (AJ) mRNA, read-out: MYB AJ (AC50, increase in alternative junction mRNA); for IC50: MYB canonical junction (CJ) mRNA, read-out: MYB CJ (IC50, decrease in canonical junction mRNA)

SMILES | IC50 (MYB mRNA [1]) | IC50 (HTT mRNA [2]) | AC50 (HTT mRNA [3]) | IC50 (HTT mRNA [3]) | GI50 [4] | AC50 (MYB mRNA [5]) | IC50 (MYB mRNA [5])
COc1nc2c(C(=O)Nc3cn4cc(C)nc(C)c4n3)ccc(N3C[C@H](C)N[C@@H](C)C3)c2s1 [Compound 711, N-(6,8-dimethylimidazo[1,2-a]pyrazin-2-yl)-7-[(3S,5S)-3,5-dimethylpiperazin-1-yl]-2-methoxy-1,3-benzothiazole-4-carboxamide] | 1 to 10 µM | > 10 µM | > 10 µM | > 10 µM | 1 to 10 µM | 1 to 10 µM | 1 to 10 µM
C[C@H]1CN(c2ccc(C(=O)Nc3cc(F)c4nn(C)cc4c3)c3nc(OCCO)sc23)C[C@H](C)N1 [Compound 712, 7-[(3S,5S)-3,5-dimethylpiperazin-1-yl]-N-(7-fluoro-2-methyl-indazol-5-yl)-2-(2-hydroxyethoxy)-1,3-benzothiazole-4-carboxamide] | < 0.1 µM | < 0.1 µM | < 0.1 µM | < 0.1 µM | < 0.1 µM | < 0.1 µM | < 0.1 µM
Cc1cn2cc(NC(=O)c3cc(F)c(N4CCC(NC5CC5)CC4)c4cn(C)nc34)cc(F)c2n1 [Compound 713, 4-[4-(cyclopropylamino)-1-piperidyl]-5-fluoro-N-(8-fluoro-2-methyl-imidazo[1,2-a]pyridin-6-yl)-2-methyl-indazole-7-carboxamide] | 0.1 to 1 µM | > 10 µM | > 10 µM | > 10 µM | 0.1 to 1 µM | 0.1 to 1 µM | 0.1 to 1 µM
COc1nc2c(C(=O)Nc3ccc4nn(C)cc4n3)ccc(N3C[C@H](C)N[C@@H](C)C3)c2s1 [Compound 714, 7-[(3S,5S)-3,5-dimethylpiperazin-1-yl]-2-methoxy-N-(2-methylpyrazolo[4,3-b]pyridin-5-yl)-1,3-benzothiazole-4-carboxamide] | < 0.1 µM | 0.1 to 1 µM | 0.1 to 1 µM | 0.1 to 1 µM | < 0.1 µM | < 0.1 µM | < 0.1 µM
COc1nc2c(C(=O)Nc3cccc4c3cnn4C)ccc(N3C[C@H](C)N[C@@H](C)C3)c2s1 [Compound 715] | > 10 µM | > 10 µM | > 10 µM | > 10 µM | 0.1 to 1 µM | > 10 µM | > 10 µM
COc1nc2c(C(=O)Nc3ccc4c(c3)OCCO4)ccc(N3C[C@H](C)N[C@@H](C)C3)c2s1 [Compound 716, N-(2,3-dihydro-1,4-benzodioxin-6-yl)-7-[(3S,5S)-3,5-dimethylpiperazin-1-yl]-2-methoxy-1,3-benzothiazole-4-carboxamide] | 1 to 10 µM | 1 to 10 µM | > 10 µM | 1 to 10 µM | 1 to 10 µM | 1 to 10 µM | 1 to 10 µM
COc1nc2c(C(=O)Nc3cc(C)c4nn(C)cc4c3OC)ccc(N3C[C@H](C)N[C@@H](C)C3)c2s1 [Compound 717, 7-[(3S,5S)-3,5-dimethylpiperazin-1-yl]-2-methoxy-N-(4-methoxy-2,7-dimethyl-indazol-5-yl)-1,3-benzothiazole-4-carboxamide] | > 10 µM | 1 to 10 µM | > 10 µM | 1 to 10 µM | 1 to 10 µM | > 10 µM | > 10 µM
COc1nc2c(C(=O)Nc3cc(C)c4nn(C)cc4c3)ccc(N3C[C@H](C)N[C@@H](C)C3)c2s1 [Compound 718, N-(2,7-dimethylindazol-5-yl)-7-[(3S,5S)-3,5-dimethylpiperazin-1-yl]-2-methoxy-1,3-benzothiazole-4-carboxamide] | < 0.1 µM | 1 to 10 µM | 1 to 10 µM | 1 to 10 µM | < 0.1 µM | < 0.1 µM | < 0.1 µM
COc1nc2c(C(=O)Nc3cc(F)c4nn(C)cc4c3)ccc(N3C[C@@H](C)N[C@H](C)C3)c2s1 [Compound 719, 7-[(3R,5R)-3,5-dimethylpiperazin-1-yl]-N-(7-fluoro-2-methyl-indazol-5-yl)-2-methoxy-1,3-benzothiazole-4-carboxamide] | < 0.1 µM | 1 to 10 µM | 1 to 10 µM | 1 to 10 µM | 0.1 to 1 µM | < 0.1 µM | < 0.1 µM
COc1nc2c(C(=O)Nc3cc(F)c4nn(C)cc4c3)ccc(N3C[C@@H](C)N[C@@H](C)C3)c2s1 [Compound 720] | < 0.1 µM | 0.1 to 1 µM | 0.1 to 1 µM | 0.1 to 1 µM | < 0.1 µM | < 0.1 µM | < 0.1 µM
Cc1cn2cc(NC(=O)c3ccc(N4CCC(NC5CC5)CC4)c4cn(C)nc34)nc2c(CC2CCOC2)n1 (stereo not shown) [Compound 722, 4-[4-(cyclopropylamino)-1-piperidyl]-2-methyl-N-[6-methyl-8-(tetrahydrofuran-3-ylmethyl)imidazo[1,2-a]pyrazin-2-yl]indazole-7-carboxamide 2,2,2-trifluoroacetate] | > 10 µM | > 10 µM | > 10 µM | > 10 µM | 1 to 10 µM | > 10 µM | > 10 µM
CCNC1CCN(c2cc(Br)c(C(=O)Nc3cn4cc(C)nc4c(F)c3OC)c3nn(C)cc23)CC1 [Compound 723] | < 0.1 µM | 0.1 to 1 µM | 0.1 to 1 µM | 0.1 to 1 µM | 0.1 to 1 µM | < 0.1 µM | < 0.1 µM
CC(=O)Nc1nc2c(C(=O)Nc3cc(F)c4nn(C)cc4c3)ccc(N3C[C@H](C)N[C@@H](C)C3)c2s1 [Compound 724, 2-acetamido-7-[(3S,5S)-3,5-dimethylpiperazin-1-yl]-N-(7-fluoro-2-methyl-indazol-5-yl)-1,3-benzothiazole-4-carboxamide] | < 0.1 µM | 0.1 to 1 µM | 1 to 10 µM | 0.1 to 1 µM | 1 to 10 µM | < 0.1 µM | < 0.1 µM
CC(=O)NCc1nc(C)cn2cc(NC(=O)c3ccc(N4CCC(NC5CC5)CC4)c4cn(C)nc34)nc12 [Compound 725, N-[8-(acetamidomethyl)-6-methyl-imidazo[1,2-a]pyrazin-2-yl]-4-[4-(cyclopropylamino)-1-piperidyl]-2-methyl-indazole-7-carboxamide] | > 10 µM | > 10 µM | > 10 µM | > 10 µM | > 10 µM | > 10 µM | > 10 µM
COc1nc2c(C(=O)Nc3cc4cn(C)nc4c(C)c3O)ccc(N3C[C@H](C)N[C@@H](C)C3)c2s1 [Compound 726, 7-[(3S,5S)-3,5-dimethylpiperazin-1-yl]-N-(6-hydroxy-2,7-dimethyl-indazol-5-yl)-2-methoxy-1,3-benzothiazole-4-carboxamide] | 1 to 10 µM | > 10 µM | > 10 µM | > 10 µM | 1 to 10 µM | 0.1 to 1 µM | 1 to 10 µM
COc1nc2c(C(=O)Nc3ccc4nn(C)cc4c3F)ccc(N3C[C@H](C)N[C@@H](C)C3)c2s1 [Compound 727, 7-((3S,5S)-3,5-dimethylpiperazin-1-yl)-N-(4-fluoro-2-methyl-2H-indazol-5-yl)-2-methoxybenzo[d]thiazole-4-carboxamide 2,2,2-trifluoroacetate] | < 0.1 µM | 0.1 to 1 µM | 0.1 to 1 µM | 0.1 to 1 µM | < 0.1 µM | < 0.1 µM | < 0.1 µM
COc1nc2c(C(=O)Nc3cc4cn(C)nc4cc3O)ccc(N3C[C@H](C)N[C@@H](C)C3)c2s1 [Compound 728, 7-[(3S,5S)-3,5-dimethylpiperazin-1-yl]-N-(6-hydroxy-2-methyl-indazol-5-yl)-2-methoxy-1,3-benzothiazole-4-carboxamide] | 0.1 to 1 µM | > 10 µM | > 10 µM | > 10 µM | 1 to 10 µM | 0.1 to 1 µM | 0.1 to 1 µM
COc1nc2c(C(=O)Nc3ccc4nn(C)cc4c3OC)ccc(N3C[C@H](C)N[C@@H](C)C3)c2s1 [Compound 729, 7-[(3S,5S)-3,5-dimethylpiperazin-1-yl]-2-methoxy-N-(4-methoxy-2-methyl-indazol-5-yl)-1,3-benzothiazole-4-carboxamide] | > 10 µM | 1 to 10 µM | > 10 µM | 1 to 10 µM | 1 to 10 µM | > 10 µM | > 10 µM
COc1nc2c(C(=O)Nc3ccc(=O)n(C)c3)ccc(N3C[C@H](C)N[C@@H](C)C3)c2s1 [Compound 730, 7-((3S,5S)-3,5-dimethylpiperazin-1-yl)-2-methoxy-N-(1-methyl-6-oxo-1,6-dihydropyridin-3-yl)benzo[d]thiazole-4-carboxamide 2,2,2-trifluoroacetate] | 0.1 to 1 µM | > 10 µM | > 10 µM | > 10 µM | 1 to 10 µM | 0.1 to 1 µM | 0.1 to 1 µM
